Measurements: patent US8101628B2, “Imidazolidinonyl aminopyrimidine compounds for the treatment of cancer” (Eli Lilly and Company, priority 2007, dated 2012)
Like-named read-outs stand apart in the source and are kept apart here.

How the values were obtained:
[1] = test system: HCT116, A549 and NCIH460 murine xenografts; conditions: cited from earlier work
[2] = in man, cited from earlier work
HCT116 cells = assay: Antiproliferative Assay; format: cell-based; conditions: Homo sapiens, HCT-116, e.g. 72 hours exposure, Alamar Blue, n=3, MSR 3.1
Method: The effects of compounds on cell proliferation can be determined using cells and cell proliferation methods well-known in the art (Robert C. Squatrito et al., Gynecological Oncology, 58, 101-105, (1995)). For example, HCT116 cells, which may be obtained from the American Type Culture Collection, may be seeded at 2000 cells/well in 96-well plates and allowed to attach overnight in a humidified CO2 incubator at 37° C. Following the 20-24 hour incubation, half-log serially diluted compounds are added and the plates are returned to the incubator. After an appropriate length of exposure (e.g., 72 hours), cell proliferation is estimated using well-known methods. In one method, 10 μL of a tetrazolium salt, such as Alamar Blue™ is added to the cell plates. After an appropriate exposure to the dye, fluorescence (530 nm excitation, 580 nm emission) is determined. The resulting IC50 has an MSR of 3.1.

HeLa Cells = assay: pHH3(S10), Mitotic Cells, and DNA Content Assays; format: cell-based; conditions: Homo sapiens, 23 hours exposure
Method: HeLa Cells from the American Type Culture Collection (ATCC) are plated at 200 cells/well in 96 well […] BIOCOAT™ plates, and are incubated in MEM (Minimum Essential Medium, e.g., GIBCO, catalog #11095) with 10% FBS (Fetal Bovine Serum) in 37° C., 5% CO2 for 24 hours. Cells are treated by adding compound (in 0.25% DMSO) to the medium, dosing at 10 points across the range 0.5 μM to 0.0098 μM. After 23 hours exposure to the compounds, cells are fixed, for example with the PREFER™ fixative [Anatech LTD., Catalog #414] for 30 min then are permeabilized with 0.1% TRITON® X100 in phosphate buffered saline (PBS) solution for 15 min. Cells are washed 3 times with PBS then digested with 50 μg/mL RNAse. Primary antibody, phosphohistone H3 (Upstate Cat#06-570), is added at 1:500 in PBS with 1% bovine serum albumin (BSA) to the cells over night at 4° C. After 3 PBS washes, cells are incubated with Alexa488 labeled secondary antibody (Invitrogen cat #A11008) for 1 hour at room temperature. Again they are washed 3 times with PBS, and then 15 μM propidium iodide (Molecular Probes cat #P3566) is added for 30 min to stain nuclei. Fluorescence Plates are scanned with ACUMEN EXPLORER™ [Laser-scanning fluorescence microplate cytometer (comprising of 488 nm argon ion laser excitation and multiple photomultiplier tube detection), manufactured by TTP LABTECH LTD] to measure phosphohistone H3, DNA content and mitotic cells as measured by DNA condensation. Image analyses are based on cellular fluorescent signals for identifying cells in different subpopulations. pHH3(S10) positive cells are identified by mean intensity at 500-530 nm above the threshold. Total intensity at 655-705 nm from propidium iodide/DNA is used to identify individual cells (cells with DNA content from 2N to 4N) and subpopulations in cell cycle (2N cells, 4N cells). Peak intensity at 575-640 nm is used to identify DNA condensation that is used as the marker to identify mitotic cells among 4N cells. […] The EC50 is determined by curve fitting to a four parameter logistic for each output using ACTIVITY BASE™. […]

[3] = molecular target: T1, Plk1-Flag-His6 tag fusion enzyme (Human Plk1) (Homo sapiens, UniProt P53350); assay: Plk1 Inhibition Assay; format: biochemical; conditions: 5.0 μM ATP, GST-Cdc25c (1-206) substrate, 60 min room temperature; MSR 3.6; read-out: Plk1 IC50 (absolute IC50)
T1 construct: made in house; host or cells: Sf9 cells (baculovirus, pFastBac vector)
Text: Human Plk1 cDNA, which may be obtained from a number of sources, such as Incyte (accession number: NM_005030), may be directly linked at one of its termini with a polynucleotide sequence expressing a His6 tag, such as the C-terminal FLAG-His6 tag, and inserted into an appropriate expression vector, such as a pFastBac™ vector (Invitrogen) and transfected into an appropriate system, such as baculovirus similar to what has been reported by Yue-Wei Qian, et al., Science 282, 1701 (1998) for xPlkk1. If a viral expression system is used, then the virus (e.g., baculovirus bearing a Plk1-Flag-His6 tag polynucleotide construct) is infected into a culture of a suitable host cell, such as Sf9 cells. […]
Plk1 kinase reactions contain Plk1-Flag-His6 tag fusion enzyme (0.2 ng/μL) in a buffer containing 50 mM HEPES, pH 7.3, 1.0 mM dithiothreitol, 5.0 μM ATP, 10 mM MgCl2, 0.01% TRITON® X-100, 0.4 μCi ^33P-ATP, and 0.06 μg/μL GST-Cdc25c (1-206) peptide. […] Wells are dried before addition of 40 μL of MicroScint™20 (Packard) and then counted on a Wallac MICROBETA® Jet. The percentage inhibition values from the 10-point concentration response data are subsequently analyzed, for example, using ACTIVITY BASE™ software (IDBS), using a 4-parameter logistic equation. Absolute IC50 values are calculated from the resulting curve fit.

T1 sequence (P53350 whole entry, the tested form may be a part): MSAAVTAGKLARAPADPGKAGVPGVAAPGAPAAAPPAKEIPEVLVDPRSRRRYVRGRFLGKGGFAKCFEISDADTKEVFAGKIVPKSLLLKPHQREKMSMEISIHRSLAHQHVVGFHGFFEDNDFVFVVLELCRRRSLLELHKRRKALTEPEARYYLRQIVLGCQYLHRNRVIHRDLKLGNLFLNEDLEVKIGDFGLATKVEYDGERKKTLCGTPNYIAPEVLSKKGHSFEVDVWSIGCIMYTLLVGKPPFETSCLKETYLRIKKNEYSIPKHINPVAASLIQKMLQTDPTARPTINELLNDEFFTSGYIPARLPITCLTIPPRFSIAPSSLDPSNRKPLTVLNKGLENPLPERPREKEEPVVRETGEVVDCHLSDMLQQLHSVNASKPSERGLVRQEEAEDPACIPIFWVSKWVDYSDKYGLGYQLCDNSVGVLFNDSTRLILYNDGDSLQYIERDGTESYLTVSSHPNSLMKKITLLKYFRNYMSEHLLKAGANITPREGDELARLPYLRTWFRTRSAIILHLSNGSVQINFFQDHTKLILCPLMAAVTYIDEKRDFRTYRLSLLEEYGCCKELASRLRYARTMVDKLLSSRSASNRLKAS

Structure (SMILES)	activity in preclinical xenograft models [1]	clearance (CL) ([2]; phase II clinical trials) [mL/min]	dose-limiting toxicity [2]	IC50 (HCT116 cells) [µM]	EC50 (HeLa Cells; n=1, MSR 2.5, read-out: mitotic EC50) [µM]	EC50 (HeLa Cells; n=2, MSR 2.4, read-out: DNA content EC50) [µM]	EC50 (HeLa Cells; n=2, MSR 2.6, read-out: pHH3(s10) EC50) [µM]	IC50 [3] [µM]
CC[C@@H]1C(=O)N(C)c2cnc(Nc3ccc(C(=O)NC4CCN(C)CC4)cc3OC)nc2N1C1CCCC1 [BI-2536]	demonstrated activity	> 1000	dose limited by myelosupression	–	–	–	–	–
O=C1NCCN1CCNc1ncc(Cl)c(-c2cc3cccc(-c4cc(F)ncc4Cl)c3s2)n1 [Example 13, 1-(2-{5-Chloro-4-[7-(5-chloro-2-fluoropyridin-4-yl)-benzo[b]thiophen-2-yl]pyrimidin-2-ylamino}ethyl)imidazolidin-2-one]	–	–	–	0.011	0.045	0.04	0.042	~0.023
